Values of other authors, collected in patent US20220241055A1, “DENTAL IMPLANT WITH ANTIBACTERIAL/ ANTIMICROBIAL PROPERTY HAVING METAL-ORGANIC FRAMEWORK (MOF) STRUCTURE AND PRODUCTION METHOD THEREOF” (RECEP TAYYIP ERDOGAN UNIVERSITESI, priority 2019, published 2022).

Conditions: conditions similar to body medium (SBF, 37° C.), stored in metal-organic framework structures

CC(C)Cc1ccc(C(C)C(=O)O)cc1 (stereo not shown) [ibuprofen]
duration of release of the stored drug: 6 days
